Source: patent US10316028B2, “Orexin receptor antagonists” (Heptares Therapeutics Limited, priority 2012, dated 2019)

Biological target: T1, human Orexin-2 receptor (Homo sapiens, UniProt O43614)
T1 construct: expressed in transfected cells; host or cells: HEK293 cells (transient transfection, Genejuice); membranes
T1 sequence (O43614 1-444): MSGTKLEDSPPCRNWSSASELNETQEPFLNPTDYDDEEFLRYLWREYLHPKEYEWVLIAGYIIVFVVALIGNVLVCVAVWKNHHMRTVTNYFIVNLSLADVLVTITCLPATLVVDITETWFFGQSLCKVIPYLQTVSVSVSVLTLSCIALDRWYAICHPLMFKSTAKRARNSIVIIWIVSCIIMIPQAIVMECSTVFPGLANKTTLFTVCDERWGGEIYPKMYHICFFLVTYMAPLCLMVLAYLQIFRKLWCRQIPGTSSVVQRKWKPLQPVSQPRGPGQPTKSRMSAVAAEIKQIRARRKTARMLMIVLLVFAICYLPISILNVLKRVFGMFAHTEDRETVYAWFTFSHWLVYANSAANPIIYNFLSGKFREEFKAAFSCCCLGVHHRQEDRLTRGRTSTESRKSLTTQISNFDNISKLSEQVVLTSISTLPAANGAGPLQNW
Assay: 3H-EMPA radioligand binding assay
Details: 3H-EMPA displacement, membranes of HEK293 cells transfected with human Orexin-2 receptor; KI by Cheng-Prussoff; read-out: OX2 pKi ave (converted)
Description: cDNA encoding the human Orexin-2 receptor was transfected into HEK293 cells using the transfection reagent Genejuice (Novagen). Forty-eight hours after transfection, cells were harvested and washed twice with ice cold phosphate-buffered saline. The pellet was resuspended in ice-cold buffer containing 20 mM Tris-HCl, pH 7.4, 1 mM EDTA and homogenised with an Ultraturax for 30 s at maximum speed. After centrifugation at 48,000 g for 30 min at 4° C., the pellet was resuspended and spun again. The final pellet was resuspended and frozen at −80° C. before use. Protein concentration was determined using the BCA protein assay method.
^3H-EMPA Radioligand Binding Assay
At the end of the incubation, membranes were filtered onto a unifilter, a 96-well white microplate with bonded GF/B filter pre-incubated with 0.5% polyethylenimine, with a Tomtec cell harvester and washed 4 times with distilled water. […] Radioactivity on the filter was counted (1 min) on a microbeta counter after addition of 50 µL of scintillation fluid. […] IC50 values were derived from the inhibition curve and the equilibrium dissociation constant (KI) values were calculated using the Cheng-Prussoff equation.

| Structure (SMILES) | Ki [nM] |
| --- | --- |
| Cc1cc(C)cc(N2C(=O)N(Cc3ccccc3Cl)c3ccccc3S2(=O)=O)c1 [Example 55, 4-(2-chlorobenzyl)-2-(3,5-dimethylphenyl)-2H-1,2,4-benzothiadiazin-3(4H)-one 1,1-dioxide] | 30.9 |
| Cc1cc(C)cc(N2C(=O)N(Cc3ccccc3F)c3ccccc3S2(=O)=O)c1 [Example 56, 4-(2-fluorobenzyl)-2-(3,5-dimethylphenyl)-2H-1,2,4-benzothiadiazin-3(4H)-one 1,1-dioxide] | 20.9 |
| Cc1ccc(N2C(=O)N(Cc3ccccc3F)c3ccccc3S2(=O)=O)cc1C [Example 57, 4-(2-fluorobenzyl)-2-(3,4-dimethylphenyl)-2H-1,2,4-benzothiadiazin-3(4H)-one 1,1-dioxide] | 23.4 |
| O=C1N(Cc2ccccc2Cl)c2ccccc2S(=O)(=O)N1Cc1ccccc1 [Example 58, 2-benzyl-4-(2-chlorobenzyl)-2H-1,2,4-benzothiadiazin-3(4H)-one 1,1-dioxide] | 933 |
| Cc1ccc(N2C(=O)N(Cc3ccccc3Cl)c3ccccc3S2(=O)=O)cc1C [Example 59, 4-(2-chlorobenzyl)-2-(3,4-dimethylphenyl)-2H-1,2,4-benzothiadiazin-3(4H)-one 1,1-dioxide] | 43.7 |
| COC(=O)c1ccc(OC)c(CN2C(=O)N(c3ccc(OC)c(OC)c3)S(=O)(=O)c3ccccc32)c1 [Example 60, methyl 3-{[2-(3,4-dimethoxyphenyl)-1,1-dioxido-3-oxo-2,3-dihydro-4H-1,2,4-benzothiadiazin-4-yl]methyl}-4-methoxybenzoate] | 40.7 |
| CSc1cccc(N2C(=O)N(CC3CCC3)c3ccccc3S2(=O)=O)c1 [Example 61, 4-(Cyclobutylmethyl)-2-[3-(methylsulfanyl)phenyl]-2H-1,2,4-benzothiadiazin-3(4H)-one 1,1-dioxide] | 269 |
| CSc1cccc(N2C(=O)N(CC3CCCCC3)c3ccccc3S2(=O)=O)c1 [Example 62, 4-(Cyclohexylmethyl)-2-[3-(methylsulfanyl)phenyl]-2H-1,2,4-benzothiadiazin-3(4H)-one 1,1-dioxide] | 871 |
| CSc1cccc(N2C(=O)N(C(C)c3ccccc3F)c3ccc(F)cc3S2(=O)=O)c1 (stereo not shown) [Example 63, 7-Fluoro-4-[1-(2-fluorophenyl)ethyl]-2-[3-(methylsulfanyl)phenyl]-2H-1,2,4-benzothiadiazin-3(4H)-one 1,1-dioxide] | 832 |
| O=C1N(Cc2c(F)cccc2Cl)c2ccccc2S(=O)(=O)N1CC1CCCCC1 [Example 64, 4-(2-Chloro-6-fluorobenzyl)-2-(cyclohexylmethyl)-2H-1,2,4-benzothiadiazin-3(4H)-one 1,1-dioxide] | 661 |
| N#Cc1ccc(CN2C(=O)N(Cc3c(F)cccc3F)c3ccccc3S2(=O)=O)cc1F [Example 65, 4-{[4-(2,6-Difluorobenzyl)-1,1-dioxido-3-oxo-3,4-dihydro-2H-1,2,4-benzothiadiazin-2-yl]methyl}-2-fluorobenzonitrile] | 200 |
| COc1cccc(CCN2C(=O)N(Cc3c(F)cccc3F)c3ccccc3S2(=O)=O)c1 [Example 66, 4-(2,6-Difluorobenzyl)-2-[2-(3-methoxyphenyl)ethyl]-2H-1,2,4-benzothiadiazin-3(4H)-one 1,1-dioxide] | 550 |
| COc1ccc(N2C(=O)N(Cc3ccccc3F)c3ccccc3S2(=O)=O)cc1OC [Example 67, 2-(3,4-Dimethoxyphenyl)-4-(2-fluorobenzyl)-2H-1,2,4-benzothiadiazin-3(4H)-one 1,1-dioxide] | 7.08 |
| COc1ccc(N2C(=O)N(Cc3c(Cl)cccc3Cl)c3ccccc3S2(=O)=O)cc1OC [Example 68, 4-(2,6-Dichlorobenzyl)-2-(3,4-dimethoxyphenyl)-2H-1,2,4-benzothiadiazin-3(4H)-one 1,1-dioxide] | 0.708 |
| COc1cc(OC)cc(N2C(=O)N(Cc3c(F)cccc3Cl)c3ccccc3S2(=O)=O)c1 [Example 69, 4-(2-Chloro-6-fluorobenzyl)-2-(3,5-dimethoxyphenyl)-2H-1,2,4-benzothiadiazin-3(4H)-one 1,1-dioxide] | 1.07 |
| COc1cc(OC)cc(N2C(=O)N(Cc3c(Cl)cccc3Cl)c3ccccc3S2(=O)=O)c1 [Example 70, 4-(2,6-Dichlorobenzyl)-2-(3,5-dimethoxyphenyl)-2H-1,2,4-benzothiadiazin-3(4H)-one 1,1-dioxide] | 2 |

| Structure (SMILES) | Ki [nM] |
| --- | --- |
| COc1ccc(N2C(=O)N(Cc3cccc(Cl)c3F)c3ccccc3S2(=O)=O)cc1OC [Example 71, 4-(3-Chloro-2-fluorobenzyl)-2-(3,4-dimethoxyphenyl)-2H-1,2,4-benzothiadiazin-3(4H)-one 1,1-dioxide] | 7.08 |
| COc1ccc(N2C(=O)N(Cc3ccc(Cl)cc3F)c3ccccc3S2(=O)=O)cc1OC [Example 72, 4-(4-Chloro-2-fluorobenzyl)-2-(3,4-dimethoxyphenyl)-2H-1,2,4-benzothiadiazin-3(4H)-one 1,1-dioxide] | 10.5 |
| O=C1N(Cc2c(F)cccc2Cl)c2ccccc2S(=O)(=O)N1c1cccc(SC(F)(F)F)c1 [Example 73, 4-(2-Chloro-6-fluorobenzyl)-2-{3-[(trifluoromethyl)sulfanyl]phenyl}-2H-1,2,4-benzothiadiazin-3(4H)-one 1,1-dioxide] | 2.09 |
| CSc1cccc(N2C(=O)N(Cc3c(F)cccc3Cl)c3ccc(F)cc3S2(=O)=O)c1 [Example 74, 4-(2-Chloro-6-fluorobenzyl)-7-fluoro-2-[3-(methylsulfanyl)phenyl]-2H-1,2,4-benzothiadiazin-3(4H)-one 1,1-dioxide] | 11.7 |
| O=C1N(Cc2c(F)cccc2F)c2ccccc2S(=O)(=O)N1c1cccc(SC(F)(F)F)c1 [Example 75, 4-(2,6-Difluorobenzyl)-2-{3-[(trifluoromethyl)sulfanyl]phenyl}-2H-1,2,4-benzothiadiazin-3(4H)-one 1,1-dioxide] | 8.32 |
| CSc1cccc(N2C(=O)N(Cc3c(F)cccc3Cl)c3cc(F)ccc3S2(=O)=O)c1 [Example 76, 4-(2-Chloro-6-fluorobenzyl)-6-fluoro-2-[3-(methylsulfanyl)phenyl]-2H-1,2,4-benzothiadiazin-3(4H)-one 1,1-dioxide] | 14.8 |
| COc1ccc(N2C(=O)N(Cc3c(C)cccc3C)c3ccccc3S2(=O)=O)cc1OC [Example 77, 4-(2,6-Dimethylbenzyl)-2-(3,4-methoxyphenyl)-2H-1,2,4-benzothiadiazin-3(4H)-one 1,1-dioxide] | 8.91 |
| COc1cc(N2C(=O)N(Cc3c(F)cccc3Cl)c3ccccc3S2(=O)=O)cc(OC)c1OC [Example 78, 4-(2-Chloro-6-fluorobenzyl)-2-(3,4,5-trimethoxyphenyl)-2H-1,2,4-benzothiadiazin-3(4H)-one 1,1-dioxide] | 4.07 |
| COc1ccc(N2C(=O)N(Cc3c(C)cccc3F)c3ccccc3S2(=O)=O)cc1OC [Example 79, 4-(2-Fluoro-6-methylbenzyl)-2-(3,4-methoxyphenyl)-2H-1,2,4-benzothiadiazin-3(4H)-one 1,1-dioxide] | 0.389 |
| COc1c(C)cc(N2C(=O)N(Cc3ccc(F)cc3Cl)c3ccccc3S2(=O)=O)cc1C [Example 80, 4-(2-Chloro-4-fluorobenzyl)-2-(4-methoxy-3,5-dimethylphenyl)-2H-1,2,4-benzothiadiazin-3(4H)-one 1,1-dioxide] | 7.59 |
| COc1c(C)cc(N2C(=O)N(Cc3c(F)cccc3Cl)c3ccccc3S2(=O)=O)cc1C [Example 81, 4-(2-Chloro-6-fluorobenzyl)-2-(4-methoxy-3,5-dimethylphenyl)-2H-1,2,4-benzothiadiazin-3(4H)-one 1,1-dioxide] | 0.0832 |
| Cc1cc(N2C(=O)N(Cc3c(F)cccc3Cl)c3ccccc3S2(=O)=O)cc(C)c1O [Example 82, 4-(2-Chloro-6-fluorobenzyl)-2-(4-hydroxy-3,5-dimethylphenyl)-2H-1,2,4-benzothiadiazin-3(4H)-one 1,1-dioxide] | 3.31 |
| CSc1cccc(N2C(=O)N(Cc3cc(C)nn3C)c3ccccc3S2(=O)=O)c1 [Example 83, 4-[(1,3-Dimethyl-1H-pyrazol-5-yl)methyl]-2-[3-(methylsulfanyl)phenyl]-2H-1,2,4-benzothiadiazin-3(4H)-one 1,1-dioxide] | 295 |
| COc1ccc(N2C(=O)N(Cc3c(C)ccnc3C)c3ccccc3S2(=O)=O)cc1OC [Example 84, 2-(3,4-Dimethoxyphenyl)-4-[(2,4-dimethylpyridin-3-yl)methyl]-2H-1,2,4-benzothiadiazin-3(4H)-one 1,1-dioxide] | 490 |
| COc1ccc(N2C(=O)N(Cc3c(F)cncc3F)c3ccccc3S2(=O)=O)cc1OC [Example 85, 4-[(3,5-Difluoropyridin-4-yl)methyl]-2-(3,4-dimethoxyphenyl)-2H-1,2,4-benzothiadiazin-3(4H)-one 1,1-dioxide] | 60.3 |
